According to patent US9283289B2, “Self-quenching activatable COX-2-specific multi-modal molecular probes for diagnosis of cancers, inflammation, and immune system disorders” (The Board of Trustees of the Leland Stanford Junior …, priority 2012, dated 2016):

Legend:
[1] = tested on: basal cell carcinoma (BCC), squamous cell carcinoma (SCC) and melanoma tumors; assay: In vivo fluorescence imaging of skin tumors after systemic (retro-orbital) injection of the probe; set-up: species or system mouse
Text: Imaging agents based on the well-characterized COX-2 inhibitors can be used for the early detection of skin cancer and help define tumor margins. […] A continuing problem is the detection of small tumors that are indistinguishable over non-specific background fluorescence.
FIGS. 1A and 1B illustrate in vivo detection of Fluorocoxib accumulation in Basal Cell Carcinoma Imaging with CRi Maestro. FIG. 1A: Histology and identification of tumor cell; FIG. 1B: from lesion 3 (arrows).
However, for skin or other epithelial applications, as well as to improve on its TBR on systemic administration, it is desirable to limit the non-specific signal. To overcome this undesirable background fluorescent signal that can mask signals from smaller tumors and other sites having low-level expression of COX-2, the present disclosure provides molecular probes wherein the fluorescent COX-2-specific construct comprises a fluorescent quencher linked to the probe by a cleavable linker. Upon entry into a cell and binding of the Fluorocoxib to COX-2, the quencher can be displaced from the vicinity of the fluorophore by, for example, a cytoplasmic peptidase cleavage of the cleavable linker, allowing the generation of a detectable fluorescent signal. […]
The capability of this probe to detect early stage skin tumors that cannot be detected by visual inspection was investigated. […]

[2] = LC/MS-MS quantification in mouse blood after topical application; type: in vivo

With 5-Rox-D-indomethacin [Fluorocoxib A] the “size of small tumors visualized” value ([1]; genetically engineered mouse model of non-melanoma skin cancer, systemic administration, 1 mg/kg) was “approximately 100 μm”, the “fluorescence detection in tumor areas” value ([1]; three hours after retro-orbital injection, in vivo imaging and tissue histology) was “selectively detected” and the “level in mouse blood” value [2] was “undetectable”.
